Reference: ChEMBL document CHEMBL1201862, “PubChem BioAssay data set” (2004)
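How tested: cells in 96-well plates exposed to compound for 48 hours at five concentrations. GI50 is the concentration that inhibits growth by half.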 The source made the active and inactive calls. Cut-off read from the data, not from the text of the source: active = GI50 up to about 1.1 µM and inactive = higher. Where a SMILES comes first, the peptide text is derived from it. [ ]: non-standard residue; d: D form. Phe(4-Cl) = N[CH](Cc1ccc(Cl)cc1)C(=O)O

Columns and labels:
Experiment in all cases: NCI-60 cell line screen, 48 h
RXF 393 = tested on: RXF 393
U-251 = tested on: U-251
SW-620 = tested on: SW-620
KM12 = tested on: KM12
M14 = tested on: M14
CCRF-CEM = tested on: CCRF-CEM
IGROV-1 = tested on: IGROV-1
NCI-H23 = tested on: NCI-H23
HCT-116 = tested on: HCT-116
EKVX = tested on: EKVX
HT-29 = tested on: HT-29
ACHN = tested on: ACHN
SF-539 = tested on: SF-539
Malme-3M = tested on: Malme-3M
SR = tested on: SR
OVCAR-5 = tested on: OVCAR-5
SK-MEL-28 = tested on: SK-MEL-28

Measured: GI50

CS(=O)(=O)NNS(=O)(=O)c1ccc(Cl)cc1
inactive: RXF 393 26.1 µM | U-251 > 100 µM | SW-620 > 100 µM | KM12 > 100 µM | M14 > 100 µM | CCRF-CEM 29.9 µM | IGROV-1 > 100 µM | NCI-H23 > 100 µM | HCT-116 > 100 µM | EKVX 76.4 µM | HT-29 > 100 µM | ACHN > 100 µM | SF-539 > 100 µM | Malme-3M > 100 µM | SR 62.8 µM

Cc1ccc2c(c1)C(c1cccc3ccccc13)OC2=O (configuration not stated)
inactive: OVCAR-5 > 100 µM | SK-MEL-28 > 100 µM | RXF 393 27.8 µM | U-251 58.2 µM | SW-620 > 100 µM | KM12 99.1 µM | M14 41 µM | CCRF-CEM > 100 µM | IGROV-1 > 100 µM | NCI-H23 75.9 µM | HCT-116 > 100 µM | EKVX 69.8 µM | HT-29 > 100 µM | ACHN 92.9 µM | Malme-3M 51.6 µM | SR > 100 µM

O=c1c2ccc(Br)cc2nc(-c2ccccc2)n1NC1OC(CO)C(O)C(O)C1O (configuration not stated)
inactive: OVCAR-5 > 100 µM | SK-MEL-28 > 100 µM | U-251 > 100 µM | SW-620 > 100 µM | KM12 > 100 µM | M14 > 100 µM | CCRF-CEM 72.9 µM | IGROV-1 > 100 µM | NCI-H23 > 100 µM | HCT-116 > 100 µM | EKVX > 100 µM | HT-29 > 100 µM | ACHN > 100 µM | SF-539 > 100 µM | Malme-3M > 100 µM

COC1=CC2(C=CC1=O)c1cc(OC)c(OC)cc1CCN2C(=O)c1ccccc1 (configuration not stated)
inactive: SK-MEL-28 > 100 µM | RXF 393 > 100 µM | U-251 > 100 µM | SW-620 > 100 µM | KM12 > 100 µM | M14 > 100 µM | CCRF-CEM > 100 µM | IGROV-1 > 100 µM | NCI-H23 > 100 µM | HCT-116 > 100 µM | EKVX > 100 µM | HT-29 > 100 µM | ACHN > 100 µM | SF-539 > 100 µM | Malme-3M > 100 µM

COc1ccc2c(c1)NC1(O)c3ccccc3C(=O)C21O (configuration not stated)
inactive: SK-MEL-28 > 100 µM | U-251 > 100 µM | SW-620 > 100 µM | KM12 > 100 µM | M14 > 100 µM | CCRF-CEM > 100 µM | IGROV-1 > 100 µM | NCI-H23 > 100 µM | HCT-116 > 100 µM | HT-29 > 100 µM | ACHN > 100 µM | SF-539 > 100 µM | Malme-3M > 100 µM | SR > 100 µM

COC(=O)CCC(NC(=S)N/N=C/c1ccco1)C(=O)OC (configuration not stated)
inactive: OVCAR-5 > 100 µM | SK-MEL-28 > 100 µM | RXF 393 > 100 µM | U-251 > 100 µM | SW-620 > 100 µM | KM12 > 100 µM | M14 > 100 µM | CCRF-CEM > 100 µM | IGROV-1 > 100 µM | NCI-H23 > 100 µM | HCT-116 > 100 µM | EKVX > 100 µM | HT-29 > 100 µM | ACHN > 100 µM | SF-539 > 100 µM | Malme-3M > 100 µM | SR > 100 µM

CC(=O)OCC(=O)[C@@]1(O)CC[C@H]2[C@@H]3CCC4=CC(=O)[C@H](C)C[C@]4(C)[C@H]3[C@@H](O)C[C@@]21C
inactive: OVCAR-5 > 100 µM | SK-MEL-28 > 100 µM | U-251 > 100 µM | SW-620 > 100 µM | KM12 > 100 µM | M14 > 100 µM | CCRF-CEM > 100 µM | IGROV-1 > 100 µM | NCI-H23 > 100 µM | HCT-116 > 100 µM | EKVX > 100 µM | HT-29 > 100 µM | ACHN > 100 µM | SF-539 > 100 µM | Malme-3M > 100 µM | SR > 100 µM

COC(=N)c1csc(C2OC(CO)C(O)C2O)n1 (configuration not stated)
inactive: OVCAR-5 > 100 µM | SK-MEL-28 > 100 µM | U-251 > 100 µM | SW-620 > 100 µM | KM12 > 100 µM | M14 > 100 µM | CCRF-CEM 86.5 µM | IGROV-1 > 100 µM | NCI-H23 > 100 µM | HCT-116 > 100 µM | EKVX > 100 µM | HT-29 > 100 µM | ACHN > 100 µM | SF-539 > 100 µM | Malme-3M > 100 µM

O=C1c2ccccc2C(Br)(Br)c2ccccc21
inactive: OVCAR-5 > 31.6 µM | SK-MEL-28 > 31.6 µM | RXF 393 18.2 µM | U-251 > 31.6 µM | SW-620 > 31.6 µM | KM12 > 100 µM | M14 > 31.6 µM | CCRF-CEM > 31.6 µM | IGROV-1 > 31.6 µM | NCI-H23 > 100 µM | HCT-116 > 31.6 µM | EKVX > 100 µM | HT-29 > 100 µM | ACHN > 31.6 µM | SF-539 57.8 µM | Malme-3M > 31.6 µM | SR > 31.6 µM

COC(=O)C1(F)C(=O)NC(=O)NC1OC (configuration not stated)
inactive: OVCAR-5 > 100 µM | SK-MEL-28 59.6 µM | U-251 24.5 µM | SW-620 > 100 µM | KM12 21.6 µM | CCRF-CEM 3.08 µM | IGROV-1 > 100 µM | NCI-H23 30.3 µM | HCT-116 7.8 µM | HT-29 22.2 µM | ACHN 29 µM | SF-539 2.58 µM | Malme-3M 34.9 µM | SR > 100 µM

CC(C)NC(=O)CCN(C(=O)O)S(=O)(=O)c1ccc(NC(=O)c2ccccc2)cc1
inactive: OVCAR-5 > 100 µM | SK-MEL-28 > 100 µM | RXF 393 > 100 µM | U-251 15.6 µM | SW-620 27.7 µM | KM12 > 65.6 µM | M14 > 100 µM | CCRF-CEM > 43.9 µM | IGROV-1 > 100 µM | NCI-H23 > 100 µM | HCT-116 > 39.7 µM | EKVX > 100 µM | HT-29 > 58.1 µM | ACHN > 81.3 µM | SF-539 24.6 µM | Malme-3M > 100 µM | SR > 52.8 µM

Cc1ccccc1/N=C/c1ccc(N(CCC#N)S(=O)(=O)c2ccccc2)cc1
inactive: OVCAR-5 > 100 µM | SK-MEL-28 > 100 µM | RXF 393 > 100 µM | U-251 > 100 µM | SW-620 > 100 µM | KM12 > 100 µM | M14 > 100 µM | CCRF-CEM > 100 µM | IGROV-1 > 100 µM | NCI-H23 > 100 µM | HCT-116 > 100 µM | EKVX > 100 µM | HT-29 > 100 µM | ACHN > 100 µM | SF-539 > 100 µM | Malme-3M > 100 µM | SR > 100 µM

CCCCCC1C2C(=O)NC(=O)C1C(=O)NC2=O (configuration not stated)
inactive: OVCAR-5 > 100 µM | SK-MEL-28 > 100 µM | RXF 393 > 100 µM | SW-620 > 100 µM | KM12 > 100 µM | M14 > 100 µM | CCRF-CEM > 100 µM | IGROV-1 > 100 µM | NCI-H23 > 100 µM | EKVX > 100 µM | HT-29 > 100 µM | ACHN > 100 µM | SF-539 > 100 µM | Malme-3M > 100 µM

CC1=NN(C(=O)c2ccc(Cl)cc2)C(=O)/C1=C/c1ccc(O)cc1
inactive: OVCAR-5 > 100 µM | SK-MEL-28 > 100 µM | RXF 393 > 100 µM | U-251 > 100 µM | SW-620 > 100 µM | KM12 > 100 µM | M14 > 100 µM | CCRF-CEM > 100 µM | IGROV-1 > 100 µM | NCI-H23 > 100 µM | HCT-116 > 100 µM | EKVX > 100 µM | HT-29 > 100 µM | ACHN > 100 µM | SF-539 > 100 µM | Malme-3M > 100 µM

Cc1cc(C)nc(NS(=O)(=O)c2ccc(NC(=O)c3cccc4c(Nc5ccc(S(N)(=O)=O)cc5)c5ccccc5nc34)cc2)n1
inactive: OVCAR-5 > 100 µM | SK-MEL-28 3.09 µM | RXF 393 11.2 µM | U-251 8.89 µM | SW-620 20.6 µM | KM12 15.4 µM | M14 > 82.6 µM | CCRF-CEM 6.82 µM | IGROV-1 4.24 µM | NCI-H23 37.1 µM | HCT-116 7.64 µM | EKVX > 100 µM | HT-29 34.9 µM | ACHN > 100 µM | SF-539 3.67 µM | Malme-3M 18.2 µM

CC(O)C(NC(=O)C(Cc1ccccc1)NC(=O)C(NC(=O)C(CCCCN)NC(=O)C(Cc1c[nH]c2ccccc12)NC(=O)C(Cc1ccc(O)cc1)NC(=O)C(Cc1ccc(Cl)cc1)NC(=O)C(N)Cc1ccccc1)C(C)O)C(N)=O (configuration not stated) (H-F[Phe(4-Cl)]YWKTFT-NH2; configuration not given here)
inactive: SK-MEL-28 20.7 µM | RXF 393 16 µM | U-251 18.7 µM | KM12 13.5 µM | M14 22.7 µM | CCRF-CEM 15.8 µM | IGROV-1 19.9 µM | NCI-H23 19.8 µM | HCT-116 18.9 µM | EKVX 16.4 µM | HT-29 23.4 µM | ACHN 21.9 µM | SF-539 20 µM

NC(=S)/N=C(/c1nc2ccc(Cl)cc2nc1O)C(O)c1ccccc1Cl (configuration not stated)
inactive: OVCAR-5 > 100 µM | SK-MEL-28 > 100 µM | RXF 393 > 100 µM | U-251 > 100 µM | SW-620 > 100 µM | KM12 > 100 µM | M14 > 100 µM | CCRF-CEM > 100 µM | IGROV-1 > 100 µM | NCI-H23 > 100 µM | EKVX > 100 µM | HT-29 > 100 µM | ACHN > 100 µM | SF-539 > 100 µM | Malme-3M > 100 µM
